# Measured values published in patent US20210113522A1, “COUMARIN DERIVATIVE AS ANTI-ASTHMATIC AGENT, PHARMACEUTICAL COMPOSITION THEREOF, ITS PREPARATION AND USE” (I-NOVA MEDICINSKA ISTRAZIVANJA D.O.O., priority 2017, published 2021).
# Columns and labels:
# [1] = system: mucus production in the airway; assay: OVA model: airway mucus production (PAS staining); type: in vivo, Balb/c mice; details: vs mice that received no treatment; 1 2 mg/kg therapeutically or preventively, beclomethasone 1 mg/kg
# Method: Enhanced airway mucus production results from airway inflammation and is hallmark of allergic asthma. Thus, mechanisms that suppress immune responses in the lung could result in suppression of mucus production. Mucus production was measured 2 days after i.n. challenge in experimental mice that were treated with compound 1 or beclomethasone (as standard) and lung sections were stained with periodic acid-Schiff stain (PAS). Mucus production in the lung was quantitated immunohistologically by evaluation of mucus-positive epithelia. […]
# Mucus production was measured 2 days after i.n. challenge in experimental mice that were treated with compound 1 or beclomethasone (as standard) and lung sections were stained with PAS. Mucus production in the lung was quantitated immunohistologically by evaluation of mucus-positive epithelia.
# [2] = MTT cytotoxicity / cell survival in murine fibroblast line L20B; type: cell-based; details: mouse; L20B, 48 h; read-out: CC50 (cytotoxic concentration for 50% cells)
# Method: (§1) Cytotoxicity of compound 1 was determined through the study of cell growth and viability by the methods of determination of maximal non-toxic concentration (MNC) and concentration required for cell viability by 50% (CC50). […] Cytotoxic concentration at 50% (CC50) was defined as the concentration of the test substance 1 at which 50% of the cells die as a result of toxicity of the test substance.
# (§2) Evaluation of cytotoxicity was an important part of the assessment of anti-asthmatic activity of compound 1 since its beneficial therapeutic effect at asthma and other inflammatory respiratory diseases should be selective with little or no effects on the metabolism of host cells. The study of cytotoxicity of compound 1 was performed on two types of cell lines of murine fibroblasts L20B and L929 from European collection of cell cultures (ECACC).
# (§3) Cell viability was estimated by a modification of the 3-(4,5-dimethylthiazol-2-yl)-2,5-diphenyltetrazolium bromide (MTT) assay which is one of the most frequently used methods for measuring cell proliferation and cytotoxicity; see literature reference 12: • 12) T. Mosmann: Rapid colorimetric assay for cellular growth and survival: Application to proliferation and cytotoxicity assays, J. Immunol. Methods 65 (1983) 55-63.
# (§4) Cell viability was reported as the percentage (%) of viable cells in the wells treated with different concentrations of the test compound 1, compared to the control cells untreated with the substance. Maximal non-toxic concentration (MNC) and cytotoxic concentration for 50% of cells (CC50) were calculated from the constructed “dose-cellular survival” curve.
# (§5) Cytotoxicity of compound 1 was determined through the study of cell growth and viability by the methods of determination of maximal non-toxic concentration (MNC) and concentration required for cell viability by 50% (CC50).
# (§6) The compound 1 (Mw=410.02) under study were first dissolved in DMSO (Sigma-Aldrich) to a concentration of 0.1 mol/L (0.1 M) as a stockade later diluted in cell growth medium Dulbecco's Modified Eagle Medium (DMEM; Sigma-Aldrich) with 2% heat inactivated fetal bovine serum.
# (§7) The study of cytotoxicity of compound 1 was performed on two types of murine fibroblasts cell lines: L20B and L929 from European collection of cell cultures (ECACC). Cells were routinely maintained as adherent cell cultures in DMEM medium and containing 10% Fetal bovine serum (FBS; Gibco), 2 mM L-glutamine (Sigma-Aldrich), 100 U/mL penicillin G sodium (Sigma-Aldrich), 100 μg/mL streptomycin sulphate (Sigma-Aldrich) at 37° C. in a humidified air incubator containing 5% carbon dioxide (CO2). Cultivation of the cells was continued with direct monitoring every two or three days using a phase contrast microscope. The cells are harvested in 1× trypsin/EDTA solution (Sigma-Aldrich). Cells were passages 1:3-1:5 at a density around 5-6·10^4 cells/mL, while the passage was re-suspended repeatedly.
# (§8) Methods of determining cell growth, cell viability, maximal non-toxic concentration (MNC) and concentrations, required cell viability by 50% (CC50): Cell viability was estimated by a modification of the MTT [3-(4,5-dimethylthiazol-2-yl)-2,5-diphenyltetrazolium bromide] assay; see literature reference 12. The MTT reduction assay is one of the most frequently used methods for measuring cell proliferation and cytotoxicity. The intensity of colour (measured spectrophotometrically) of the MTT formazan produced by living, metabolically active cells by measuring the activity of succinate dehydrogenase, mostly located in mitochondria was proportional to the number of live cells present. MTT was a yellow water-soluble tetrazolium dye that was reduced by live, but not dead cells to a purple formazan product that was insoluble in aqueous solutions.
# (§9) Each cell line was plated at an appropriate density (7.5·10^3 cells/well for L20B cell culture and 4·10^4 cells/well for L929 cell culture) in 96-well plates (Costar Corning; USA) for 24 h. […]
# L20B = assay: as above; type: cell-based
# Method: as §1, §2, §3, §4, §5, §6, §7, §8, §9
# [3] = MTT cytotoxicity / cell survival in murine fibroblast line L929; type: cell-based; details: mouse; L929, 48 h; read-out: CC50 (cytotoxic concentration for 50% cells)
# Method: as §1, §2, §3, §4, §5, §6, §7, §8, §9
# L929 = assay: as above; type: cell-based
# Method: as §1, §2, §3, §4, §5, §6, §7, §8, §9
structure (smiles),measurement,setting,value
"O=c1oc2cc(O)cc(O)c2c(O)c1-c1coc2c1c(=O)oc1cc(O)cc(O)c12 [Compound 1, 7,9-dihydroxy-3-(4,5,7-trihydroxy-2-oxo-2H-chromene-3-yl)-4H-furo[3,2-c]chromen-4-one]",Mucin production in the airway (PAS),[1],significant reduction
same,CC50 at 48 h,[2],9 mM
same,"Cell survival, cell culture L20B","L20B; 0.0001 mg/mL of 1, 48 h",103.3%
same,"Cell survival, cell culture L20B","L20B; 0.001 mg/mL of 1, 48 h",99.7%
same,"Cell survival, cell culture L20B","L20B; 0.01 mg/mL of 1, 48 h",94.5%
same,"Cell survival, cell culture L20B","L20B; 0.05 mg/mL of 1, 48 h",91.3%
same,"Cell survival, cell culture L20B","L20B; 0.1 mg/mL of 1, 48 h",88.2%
same,"Cell survival, cell culture L20B","L20B; 0.5 mg/mL of 1, 48 h",85.6%
same,"Cell survival, cell culture L20B","L20B; 1 mg/mL of 1, 48 h",72.4%
same,"Cell survival, cell culture L20B","L20B; 5 mg/mL of 1, 48 h",60.2%
same,"Cell survival, cell culture L20B","L20B; 10 mg/mL of 1, 48 h",48.5%
same,"Cytotoxicity (overall, in words)","L20B; L20B, 48 h",low cytotoxicity
same,Typical cytopathology characterizing the toxic effect (microscopic morphology of monolayers),"L20B; L20B, 48 h, 0.0001-10 mg/mL",not registered
same,CC50 at 48 h,[3],10 mM
same,"Cell survival, cell culture L929","L929; 0.0001 mg/mL of 1, 48 h",100.6%
same,"Cell survival, cell culture L929","L929; 0.001 mg/mL of 1, 48 h",98.8%
same,"Cell survival, cell culture L929","L929; 0.01 mg/mL of 1, 48 h",95.3%
same,"Cell survival, cell culture L929","L929; 0.05 mg/mL of 1, 48 h",87.1%
same,"Cell survival, cell culture L929","L929; 0.1 mg/mL of 1, 48 h",89.3%
same,"Cell survival, cell culture L929","L929; 0.5 mg/mL of 1, 48 h",83.2%
same,"Cell survival, cell culture L929","L929; 1 mg/mL of 1, 48 h",76.1%
same,"Cell survival, cell culture L929","L929; 5 mg/mL of 1, 48 h",64.9%
same,"Cell survival, cell culture L929","L929; 10 mg/mL of 1, 48 h",50.5%
same,Cytotoxicity against L929 relative to L20B according to MNC values,L929; 48 h,10 ×
same,Cytotoxicity against L929 versus L20B according to CC50 values,L929; 48 h,the same cytotoxicity
same,"Cytotoxicity (overall, in words)","L929; L929, 48 h",low cytotoxicity
same,Typical cytopathology characterizing the toxic effect (microscopic morphology of monolayers),"L929; L929, 48 h, 0.0001-10 mg/mL",not registered
